# Source: ChEMBL document CHEMBL4673219, “Novel 5,6-disubstituted pyrrolo[2,3-d]pyrimidine derivatives as broad spectrum antiproliferative agents: Synthesis, cell based assays, kinase profile and molecular docking study” (Bioorg Med Chem, 2018)
# Several values for one entry are separate records, joined by “and”; a condition that tells them apart may be missing. Identical values can stand only once.
# Key:
# [1] = system: HT-29; assay: Growth inhibition of human HT-29 cells assessed as growth percentage at 0.1 uM incubated for 48 hrs by sulforhodamine B assay relative to control; type: functional; conditions: read-out: Activity
# [2] = system: LOX IMVI; assay: Growth inhibition of human LOX IMVI cells incubated for 48 hrs by sulforhodamine B assay; type: functional
# [3] = system: UACC-62; assay: Growth inhibition of human UACC-62 cells assessed as growth percentage at 100 uM incubated for 48 hrs by sulforhodamine B assay relative to control; type: functional; conditions: read-out: Activity
# [4] = system: HOP-62; assay: Growth inhibition of human HOP-62 cells assessed as growth percentage at 0.1 uM incubated for 48 hrs by sulforhodamine B assay relative to control; type: functional; conditions: read-out: Activity
# [5] = system: SF-268; assay: Growth inhibition of human SF-268 cells incubated for 48 hrs by sulforhodamine B assay; type: functional
# [6] = system: T47D; assay: Growth inhibition of human T47D cells assessed as growth percentage at 10 uM incubated for 48 hrs by sulforhodamine B assay relative to control; type: functional; conditions: read-out: Activity
# [7] = system: OVCAR-4; assay: Growth inhibition of human OVCAR-4 cells assessed as growth percentage at 0.1 uM incubated for 48 hrs by sulforhodamine B assay relative to control; type: functional; conditions: read-out: Activity
# [8] = system: SK-MEL-28; assay: Growth inhibition of human SK-MEL-28 cells assessed as growth percentage at 10 uM incubated for 48 hrs by sulforhodamine B assay relative to control; type: functional; conditions: read-out: Activity
# [9] = system: K562; assay: Growth inhibition of human K562 cells assessed as growth percentage at 1 uM incubated for 48 hrs by sulforhodamine B assay relative to control; type: functional; conditions: read-out: Activity
# [10] = system: NCI-H23; assay: Growth inhibition of human NCI-H23 cells assessed as growth percentage at 0.1 uM incubated for 48 hrs by sulforhodamine B assay relative to control; type: functional; conditions: read-out: Activity
# [11] = system: 786-0; assay: Growth inhibition of human 786-0 cells assessed as growth percentage at 0.01 uM incubated for 48 hrs by sulforhodamine B assay relative to control; type: functional; conditions: read-out: Activity
# [12] = system: NCI/ADR-RES; assay: Growth inhibition of human NCI/ADR-RES cells assessed as growth percentage at 100 uM incubated for 48 hrs by sulforhodamine B assay relative to control; type: functional; conditions: read-out: Activity
# [13] = system: SN12C; assay: Growth inhibition of human SN12C cells incubated for 48 hrs by sulforhodamine B assay; type: functional
# [14] = system: HCC 2998; assay: Growth inhibition of human HCC 2998 cells assessed as growth percentage at 0.01 uM incubated for 48 hrs by sulforhodamine B assay relative to control; type: functional; conditions: read-out: Activity
# [15] = system: HCT-15; assay: Growth inhibition of human HCT-15 cells incubated for 48 hrs by sulforhodamine B assay; type: functional
# [16] = system: M14; assay: Growth inhibition of human M14 cells assessed as growth percentage at 100 uM incubated for 48 hrs by sulforhodamine B assay relative to control; type: functional; conditions: read-out: Activity
# [17] = system: HCC 2998; assay: Growth inhibition of human HCC 2998 cells assessed as growth percentage at 0.1 uM incubated for 48 hrs by sulforhodamine B assay relative to control; type: functional; conditions: read-out: Activity
# [18] = system: NCI-H226; assay: Growth inhibition of human NCI-H226 cells assessed as growth percentage at 0.1 uM incubated for 48 hrs by sulforhodamine B assay relative to control; type: functional; conditions: read-out: Activity
# [19] = system: NCI-H23; assay: Growth inhibition of human NCI-H23 cells assessed as growth percentage at 10 uM incubated for 48 hrs by sulforhodamine B assay relative to control; type: functional; conditions: read-out: Activity
# [20] = system: A498; assay: Growth inhibition of human A498 cells assessed as growth percentage at 10 uM incubated for 48 hrs by sulforhodamine B assay relative to control; type: functional; conditions: read-out: Activity
# [21] = system: SN12C; assay: Growth inhibition of human SN12C cells assessed as growth percentage at 100 uM incubated for 48 hrs by sulforhodamine B assay relative to control; type: functional; conditions: read-out: Activity
# [22] = system: RPMI-8226; assay: Growth inhibition of human RPMI-8226 cells assessed as growth percentage at 0.01 uM incubated for 48 hrs by sulforhodamine B assay relative to control; type: functional; conditions: read-out: Activity
# [23] = system: SK-OV-3; assay: Growth inhibition of human SK-OV-3 cells assessed as growth percentage at 10 uM incubated for 48 hrs by sulforhodamine B assay relative to control; type: functional; conditions: read-out: Activity
# [24] = system: NCI-H322M; assay: Growth inhibition of human NCI-H322M cells assessed as growth percentage at 10 uM incubated for 48 hrs by sulforhodamine B assay relative to control; type: functional; conditions: read-out: Activity
# [25] = system: NCI-H460; assay: Growth inhibition of human NCI-H460 cells assessed as growth percentage at 0.01 uM incubated for 48 hrs by sulforhodamine B assay relative to control; type: functional; conditions: read-out: Activity
# [26] = Cytotoxicity against human HFF-1 cells assessed as cell growth inhibition by MTT assay; type: cell-based
# [27] = system: MDA-MB-468; assay: Growth inhibition of human MDA-MB-468 cells assessed as growth percentage at 100 uM incubated for 48 hrs by sulforhodamine B assay relative to control; type: functional; conditions: read-out: Activity
# [28] = system: NCI-H460; assay: Growth inhibition of human NCI-H460 cells assessed as growth percentage at 10 uM incubated for 48 hrs by sulforhodamine B assay relative to control; type: functional; conditions: read-out: Activity
# [29] = system: CCRF-CEM; assay: Growth inhibition of human CCRF-CEM cells incubated for 48 hrs by sulforhodamine B assay; type: functional; conditions: 48 h
# [30] = system: K562; assay: Growth inhibition of human K562 cells assessed as growth percentage at 10 uM incubated for 48 hrs by sulforhodamine B assay relative to control; type: functional; conditions: read-out: Activity
# [31] = system: SK-MEL-5; assay: Growth inhibition of human SK-MEL-5 cells incubated for 48 hrs by sulforhodamine B assay; type: functional; conditions: Homo sapiens
# [32] = system: MOLT-4; assay: Growth inhibition of human MOLT-4 cells assessed as growth percentage at 0.01 uM incubated for 48 hrs by sulforhodamine B assay relative to control; type: functional; conditions: read-out: Activity
# [33] = system: CCRF-CEM; assay: Growth inhibition of human CCRF-CEM cells assessed as growth percentage at 0.1 uM incubated for 48 hrs by sulforhodamine B assay relative to control; type: functional; conditions: read-out: Activity
# [34] = system: SF-268; assay: Growth inhibition of human SF-268 cells assessed as growth percentage at 10 uM incubated for 48 hrs by sulforhodamine B assay relative to control; type: functional; conditions: read-out: Activity
# [35] = system: HOP-92; assay: Growth inhibition of human HOP-92 cells assessed as growth percentage at 100 uM incubated for 48 hrs by sulforhodamine B assay relative to control; type: functional; conditions: read-out: Activity
# [36] = system: SF-268; assay: Growth inhibition of human SF-268 cells assessed as growth percentage at 100 uM incubated for 48 hrs by sulforhodamine B assay relative to control; type: functional; conditions: read-out: Activity
# [37] = system: OVCAR-3; assay: Growth inhibition of human OVCAR-3 cells assessed as growth percentage at 0.01 uM incubated for 48 hrs by sulforhodamine B assay relative to control; type: functional; conditions: read-out: Activity
# [38] = system: CAKI-1; assay: Growth inhibition of human CAKI-1 cells assessed as growth percentage at 1 uM incubated for 48 hrs by sulforhodamine B assay relative to control; type: functional; conditions: read-out: Activity
smiles,measurement,setting,value
CCCCCCCC(=O)Nc1nc2[nH]c(CN3CCN(Cc4cccc(F)c4)CC3)c(CN3CCN(Cc4cccc(F)c4)CC3)c2c(=O)[nH]1,growth at 0.1 µM,[1],104%
same,GI50,[2],0.2 µM
same,LC50 (concentration killing 50% of cells),[2],8.87 µM and 0.89 µM
same,TGI,[2],0.42 µM
same,GI50,"[2]; Homo sapiens, LOX IMVI",0.195 µM
same,TGI,"[2]; Homo sapiens, LOX IMVI",0.416 µM
same,growth at 100 µM,[3],-90%
same,growth at 0.1 µM,[4],95%
same,GI50,[5],1.26 µM
same,LC50,[5],5.73 µM
same,TGI,[5],2.68 µM
same,growth at 10 µM,[6],-84.2%
same,growth at 0.1 µM,[7],84%
same,growth at 10 µM,[8],-97%
same,growth at 1 µM,[9],-31%
same,growth at 0.1 µM,[10],100%
same,growth at 0.01 µM,[11],98%
same,growth at 100 µM,[12],-86%
same,GI50,[13],1.48 µM
same,LC50,[13],6.85 µM
same,TGI,[13],3.18 µM
same,growth at 0.01 µM,[14],99%
same,GI50,[15]; 48 h,0.3 µM
same,TGI,"[15]; Homo sapiens, HCT-15",1.01 µM
same,GI50,"[15]; Homo sapiens, HCT-15, 48 h",0.295 µM
same,CC50,"[15]; Homo sapiens, HCT-15, read-out: LC50 (the source's name)",3.75 µM
same,growth at 100 µM,[16],-73%
same,growth at 0.1 µM,[17],104%
same,growth at 0.1 µM,[18],95%
same,growth at 10 µM,[19],-53.8%
same,growth at 10 µM,[20],61.6%
same,growth at 100 µM,[21],-69%
same,growth at 0.01 µM,[22],101%
same,growth at 10 µM,[23],-61%
same,growth at 10 µM,[24],-41.2%
same,growth at 0.01 µM,[25],94%
same,GI50,[26],> 10 µM
same,growth at 100 µM,[27],-75%
same,growth at 10 µM,[28],-82.3%
same,GI50,[29],0.25 µM
same,LC50,[29],100 µM and > 1 µM
same,GI50,"[29]; Homo sapiens, CCRF-CEM",0.251 µM
same,growth at 10 µM,[30],-65.6%
same,GI50,[31]; SK-MEL-5,1.57 µM
same,TGI,[31]; SK-MEL-5,3.03 µM
same,CC50,"[31]; SK-MEL-5, 48 h, read-out: LC50 (the source's name)",5.87 µM
same,growth at 0.01 µM,[32],95%
same,growth at 0.1 µM,[33],94%
same,growth at 10 µM,[34],-92.2%
same,growth at 100 µM,[35],-95%
same,growth at 100 µM,[36],-77%
same,growth at 0.01 µM,[37],100%
same,growth at 1 µM,[38],70%
